This test has as its target T1, Dimer of Gag-Pol polyprotein [489-587] (Human immunodeficiency virus 1, UniProt P12497).
T1 construct: 489-587
Nature of the test: Protease Inhibition Assay. Particulars: pH 5.5; 37 °C. The procedure: Sensitivity of HIV-1 protease activity to protease inhibitors was determined by a peptide substrate cleavage assay. Cleavage products and substrate were separated by reversed-phase HPLC on a Perkin-Elmer 3 X 3CR C8 column.

By IC50 is commonly meant the midpoint of a concentration-inhibition curve. A low value points to inhibition by little substance. The molecule `CC(C)(C)NC(=O)[C@@H]1C[C@H](OCc2ccncc2)CCN1C[C@@H](O)[C@H](Cc1ccccc1)NC(=O)CCCc1ccccc1` [(2S,4R)-N-tert-butyl-1-[(2R,3S)-2-hydroxy-4-phenyl-3-(4-phenylbutanamido)butyl]-4-(pyridin-4-ylmethoxy)piperidine-2-carboxamide] returned an IC50 above 20000 nM.
Regarding `CC(C)CN(C[C@@H](O)[C@H](Cc1ccccc1)NC(=O)O[C@H]1CCOC1)S(=O)(=O)c1ccc(N)cc1` [VX-478], the IC50 worked out at 2.6 nM.
On to `CC(C)[C@H](NC(=O)c1ccc2ccccc2n1)C(=O)N[C@@H](Cc1ccccc1)[C@H](O)CN1CC[C@@H](OCc2ccncc2)C[C@H]1C(=O)NC(C)(C)C`, for which half-maximal inhibition (IC50) was put at 4 nM.
In the case of `CC(C)(C)NC(=O)[C@@H]1C[C@H](OCc2ccncc2)CCN1C[C@@H](O)[C@H](Cc1ccccc1)NC(=O)O[C@H]1CCOC1` [(3S)-oxolan-3-yl N-[(2S,3R)-4-[(2S,4R)-2-(tert-butylcarbamoyl)-4-(pyridin-4-ylmethoxy)piperidin-1-yl]-3-hydroxy-1-phenylbutan-2-yl]carbamate], the IC50 was determined as 260 nM.
